Experimental data as given in article PMC10763564, “BrainBike peptidomimetic enables efficient transport of proteins across brain endothelium” (RSC Chemical Biology, 2023).
Starred links: 1 amine or outer side, 2 acyl side, 3 side chain; linkers in the order of their positions; H or OH if unused. Positions of bridges follow the written chain, without caps; N, C: chain ends. Residues, ends and D or L forms follow the SMILES beside them. TBMB = c1c(C[*:1])cc(C[*:3])cc1C[*:2]

What was measured:
HeLa cells (TfR1+) = HeLa cells (TfR1+) (Homo sapiens, UniProt P02786); experiment: Cell binding assay of sCy5-labelled peptides to HeLa cells by flow cytometry; format: cell-based; conditions: 5 to 600 nM, 4 °C, 1 hour, geometric mean vs concentration
Description: HeLa cells were cultured in DMEM media (1000 mg/L glucose) supplemented with 10% fetal bovine serum (FBS), 1% of 2 mM L -glutamine and 1% antibiotics (100 units/mL of penicillin and 100 µg/mL of streptomycin). Cells were expanded at 80% confluence and grown at 37°C with 5% CO2. All work performed with human cells follow the ethical principles and EU […]
Cell transfection of HeLa cells to express higher levels of TfR1
In a 96-well plate, 10,000 HeLa cells per well were seeded and left to grow for 24 h. A mixture of Lipofectamine 3000 (0.1 µL/well, Lipofectamine™ 3000 Transfection Reagent, ThermoFisher Scientific ), P3000 Reagent (0.2 µL/well) and the DNA pTfR-mNeonGreen (Plasmid #129608, Addgene) (100 ng/well ) in Opti-MEM medium was prepared. The mixture was incubated for 15 mi n, added to the cells, and incubated for 48 h.
48-hour post-transfection, 50 μl of the sulfo-Cy5-labelled peptides were added to each well at the appropriate concentration (from 5 to 600 nM) and incubated at 4°C for 1 hour. Cells were washed three times with 100 μL of PBS, trypsinized with 25 μl of trypsin for 5 min at 37°C and, then 75 μL of supplemented medium with formalin (33% v/v) was added. Cells were detached by repeated pipetting and analysed using an Agilent NovoCyteflow cytometer (Agilent). sCy5 was analysed at 640 nm while mNeon-Green at 488 nm. Data was analysed by plotting the geometric mean vs the concentration of the peptide. […]

[1] = Peptide stability in human serum; format: in vitro ADME; conditions: peptide 100 µM, 37 °C, aliquots 0 min to 48 h, MeOH protein precipitation, % intact peptide by UHPLC-UV, confirmed with mass spectrometry
Description: Peptide stability in human serum
Peptides were dissolved in human serum at a final concentration of 100 µM and then incubated at 37 °C. Aliquots of 50 µL were taken at different times (0 min, 15 min, 30 min, 1 h, 2 h, 4 h, 6 h, 24 h and 48 h) and flash frozen with acetone/solid CO 2. Samples were treated with 200 µL of MeOH to precipitate serum proteins. Samples for U HPLC analysis were centrifuged and filtered through a 0.22 µm filter before injection. Aliquots were analysed with UHPLC-UV (flow = 0.61 mL/min; gradient 5 -95% MeCN (0.036% TFA) in water (0.045% TFA) in 2 minutes). The amount of peptide remaining was calculated by comparing the area under the curve of the several samples. […]

[2] = test system: human brain endothelial cells monolayer (BBB model); experiment: Permeability assay in the in vitro BBB cellular model (human brain-like endothelial cells on Transwell); format: in vitro ADME; conditions: human cell-based BBB model
Description: 48-hour post-transfection, 50 μl of the sulfo-Cy5-labelled peptides were added to each well at the appropriate concentration (from 5 to 600 nM) and incubated at 4°C for 1 hour. Cells were washed three times with 100 μL of PBS, trypsinized with 25 μl of trypsin for 5 min at 37°C and, then 75 μL of supplemented medium with formalin (33% v/v) was added. Cells were detached by repeated pipetting and analysed using an Agilent NovoCyteflow cytometer (Agilent). sCy5 was analysed at 640 nm while mNeon-Green at 488 nm. Data was analysed by plotting the geometric mean vs the concentration of the peptide.
Permeability assays in the in vitro BBB cellular model […]
the compound in Ringer HEPES was added to the donor compartment and 1500 µL of Ringer HEPES was introduced into the acceptor compartment. The plates were incubated for 2 h at 37 °C, and the solutions from both compartments were recovered and analysed. The samples were evaluated in triplicates. The amount of protein conjugates was quantified by fluorescence with Fluorescence Spectrophotometer F2500 HITACHI. […] The voltage for the detector was 700 V. Apparent permeability was calculated with the following formula: […]

[3] = target: T1, human Transferrin Receptor (Homo sapiens, UniProt P02786); experiment: Biolayer interferometry with immobilized extracellular domain of the receptor; conditions: biotinylated hTfR on streptavidin biosensors, Octet R2, 25 °C, 10 mM HEPES pH 7.4, 150 mM NaCl, 0.05 % Tween-20, 1 mg/mL BSA; peptide 11.1, 33.3, 100 µM; 1:1 binding model; read-out: KD, binding to immobilized human TfR
T1 construct: purchased Acro Biosystems TFR-H82E5
Description: Biophysical characterization
Binding assays were performed on an Octet R2 (Sartorious) using streptavidin-coated biosensors (SA biosensors, 18-5019). Biosensors were equilibrated for at least 10 min in binding buffer (10 mM HEPES pH 7.4, 150 mM NaCl, 0.05 % Tween-20, 1 mg/mL BSA).
Experiments were designed and executed from the Octet BLI Discovery 13.0 software. The biotinylated human Transferrin Receptor (TFR-H82E5, Acro Biosystems) was immobilized onto the biosensor by dipping the sensors into a solution of 1 µg/mL hTfR for 500 s, followed by dipping the sensor into a fresh solution of binding buffer to stablish a baseline for 200 s.
Titrations were executed at 25 °C while rotating at 1000 rpm. In the association phase, the sensors were dipped into a solution containing the peptides at several concentrations in binding buffer for 150 s. After reaching equilibrium, the biosensors were dipped into fresh binding solution to monitor the dissociation kinetics for 200 s. Kinetic data were collected and processed using a 1:1 binding model to obtain the affinity constants using the Octet Analysis […]
Unpaired two-tailed student t tests were applied to evaluate the significant difference or p values between data sets using Prism 6.0c software.
1. C. Heinis, T. Rutherford, S. Freund and G. Winter, Nat Chem Biol, 2009, 5, 502–507.
2. […]

Sequence of HeLa cells (TfR1+) (P02786 whole entry): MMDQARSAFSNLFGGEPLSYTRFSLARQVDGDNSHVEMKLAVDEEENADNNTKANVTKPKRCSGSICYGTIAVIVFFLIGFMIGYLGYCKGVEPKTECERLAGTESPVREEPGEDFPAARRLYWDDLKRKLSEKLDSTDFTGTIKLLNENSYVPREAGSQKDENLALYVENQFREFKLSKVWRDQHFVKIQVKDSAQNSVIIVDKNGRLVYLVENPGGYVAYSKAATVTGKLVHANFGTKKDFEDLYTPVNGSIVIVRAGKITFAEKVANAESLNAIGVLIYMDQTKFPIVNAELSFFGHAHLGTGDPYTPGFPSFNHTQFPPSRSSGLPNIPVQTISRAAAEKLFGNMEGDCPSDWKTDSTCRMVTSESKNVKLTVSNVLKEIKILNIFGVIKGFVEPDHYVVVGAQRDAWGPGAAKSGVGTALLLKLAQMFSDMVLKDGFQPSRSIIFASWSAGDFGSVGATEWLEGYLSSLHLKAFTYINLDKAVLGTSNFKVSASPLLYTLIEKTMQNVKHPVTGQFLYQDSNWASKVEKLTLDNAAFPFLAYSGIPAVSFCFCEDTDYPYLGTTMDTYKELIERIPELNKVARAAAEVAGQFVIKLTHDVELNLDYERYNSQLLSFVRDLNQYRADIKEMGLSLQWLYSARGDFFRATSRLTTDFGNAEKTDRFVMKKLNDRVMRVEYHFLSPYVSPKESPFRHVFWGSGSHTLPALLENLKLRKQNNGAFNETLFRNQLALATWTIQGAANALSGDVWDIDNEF
T1 sequence (P02786 89-760 limits assumed): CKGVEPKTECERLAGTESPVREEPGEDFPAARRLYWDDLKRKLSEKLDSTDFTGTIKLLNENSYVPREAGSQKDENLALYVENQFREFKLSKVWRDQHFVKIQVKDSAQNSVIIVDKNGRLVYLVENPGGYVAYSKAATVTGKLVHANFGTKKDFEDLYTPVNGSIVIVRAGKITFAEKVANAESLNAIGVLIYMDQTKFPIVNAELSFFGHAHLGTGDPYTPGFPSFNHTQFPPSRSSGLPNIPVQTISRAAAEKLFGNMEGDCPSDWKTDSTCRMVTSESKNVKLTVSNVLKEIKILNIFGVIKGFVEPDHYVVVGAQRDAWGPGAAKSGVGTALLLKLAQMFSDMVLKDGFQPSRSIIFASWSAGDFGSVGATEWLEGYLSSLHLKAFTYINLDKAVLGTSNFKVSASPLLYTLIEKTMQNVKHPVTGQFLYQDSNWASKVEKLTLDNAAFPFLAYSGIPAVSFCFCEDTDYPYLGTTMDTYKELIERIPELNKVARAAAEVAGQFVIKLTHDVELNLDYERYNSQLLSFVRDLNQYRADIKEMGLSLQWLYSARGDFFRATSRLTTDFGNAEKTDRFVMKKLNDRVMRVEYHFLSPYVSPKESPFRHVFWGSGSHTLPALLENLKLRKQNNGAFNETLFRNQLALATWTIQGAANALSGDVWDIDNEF

| Molecule | App. Kd, association to HeLa cells (TfR1+) (HeLa cells (TfR1+)) | half-life at 100 µM [1] [h] | App. Kd, association to HeLa cells (TfR1+) (HeLa cells (TfR1+); listed as BB4) [nM] | Fold increase in the transport of GFP on conjugation to the shuttle ([2]; GFP conjugate vs GFP) [fold] | Fold increase in the transport of the scFv on conjugation to the shuttle ([2]; sCy5-labelled scFv conjugate vs scFv) [fold] | Kd [3] [nM] |
| --- | --- | --- | --- | --- | --- | --- |
| CC(C)[C@@H]1NC(=O)[C@@H](N)CSCc2cc3cc(c2)CSC[C@H](NC(=O)[C@H](CC(=O)O)NC(=O)[C@H](Cc2c[nH]c4ccccc24)NC(=O)[C@H](Cc2c[nH]cn2)NC1=O)C(=O)N[C@@H](CCCNC(=N)N)C(=O)N[C@@H](CCC(N)=O)C(=O)N[C@@H](Cc1c[nH]c2ccccc12)C(=O)N[C@@H](Cc1c[nH]c2ccccc12)C(=O)N[C@@H](CCC(N)=O)C(=O)N1CCC[C@H]1C(=O)N[C@@H](CO)C(=O)N[C@H](C(N)=O)CSC3 [BrainBike-1] (H-CVHWDCRQWWQPSC-NH2; linker 1-6-14 via TBMB) | > 400 nM | 7.7 ± 1.9 |  |  |  |  |
| CC(C)[C@@H]1NC(=O)[C@@H](N)CSCc2cc3cc(c2)CSC[C@H](NC(=O)[C@H](Cc2c[nH]c4ccccc24)NC(=O)[C@H](CCC(N)=O)NC(=O)[C@H](CCCNC(=N)N)NC(=O)[C@H](Cc2ccccc2)NC(=O)[C@H](CC(=O)O)NC(=O)[C@H](Cc2c[nH]c4ccccc24)NC(=O)[C@H](Cc2c[nH]cn2)NC1=O)C(=O)N[C@@H](CCC(N)=O)C(=O)N1CCC[C@H]1C(=O)N[C@@H](CO)C(=O)N[C@H](C(N)=O)CSC3 [BrainBike-2] (H-CVHWDFRQWCQPSC-NH2; linker 1-10-14 via TBMB) | 120 ± 15 nM | 3.5 ± 0.3 |  |  |  |  |
| CC(C)[C@@H]1NC(=O)[C@@H](N)CSCc2cc3cc(c2)CSC[C@H](NC(=O)[C@H](CCCNC(=N)N)NC(=O)[C@H](Cc2ccccc2)NC(=O)[C@H](CC(=O)O)NC(=O)[C@H](Cc2c[nH]c4ccccc24)NC(=O)[C@H](Cc2c[nH]cn2)NC1=O)C(=O)N[C@@H](CCC(N)=O)C(=O)N[C@@H](Cc1c[nH]c2ccccc12)C(=O)N[C@@H](Cc1c[nH]c2ccccc12)C(=O)N[C@@H](CCC(N)=O)C(=O)N1CCC[C@H]1C(=O)N[C@@H](CO)C(=O)N[C@H](C(N)=O)CSC3 [BrainBike-3] (H-CVHWDFRCQWWQPSC-NH2; linker 1-8-15 via TBMB) | 250 ± 5 nM | 4.8 ± 0.6 |  |  |  |  |
| CC(C)[C@@H]1NC(=O)[C@@H](N)CSCc2cc3cc(c2)CSC[C@H](NC(=O)[C@H](CC(=O)O)NC(=O)[C@H](Cc2c[nH]c4ccccc24)NC(=O)[C@H](Cc2c[nH]cn2)NC1=O)C(=O)N[C@@H](CCCNC(=N)N)C(=O)N[C@@H](CCC(N)=O)C(=O)N[C@@H](Cc1c[nH]c2ccccc12)C(=O)N[C@H](C(N)=O)CSC3 [BrainBike-4] (H-CVHWDCRQWC-NH2; linker 1-6-10 via TBMB) | roughly 40 nM | 5.5 ± 2.5 | 37 ± 2 | 4 | 5 |  |
| H-GVHWDFRQWWQPS-NH2 [Y1, reference compound] | 270 ± 5 nM | 1.8 ± 0.5 |  |  |  | > 100000 |
